Consider 13 molecules from BindingDB's records for doi:10.1111/j.1476-5381.1981.tb10994.x (Royal Postgraduate Medical School, 1981).

Where “and” joins values, the source holds several entries; their conditions need not be identical. Equal values may be shown once.

By Ki is commonly meant a measure of affinity in units of concentration, obtained from inhibition or displacement.

This experiment concerns the target Prostacyclin receptor (Homo sapiens, UniProt P43119).

Chain of Prostacyclin receptor (P43119 whole entry): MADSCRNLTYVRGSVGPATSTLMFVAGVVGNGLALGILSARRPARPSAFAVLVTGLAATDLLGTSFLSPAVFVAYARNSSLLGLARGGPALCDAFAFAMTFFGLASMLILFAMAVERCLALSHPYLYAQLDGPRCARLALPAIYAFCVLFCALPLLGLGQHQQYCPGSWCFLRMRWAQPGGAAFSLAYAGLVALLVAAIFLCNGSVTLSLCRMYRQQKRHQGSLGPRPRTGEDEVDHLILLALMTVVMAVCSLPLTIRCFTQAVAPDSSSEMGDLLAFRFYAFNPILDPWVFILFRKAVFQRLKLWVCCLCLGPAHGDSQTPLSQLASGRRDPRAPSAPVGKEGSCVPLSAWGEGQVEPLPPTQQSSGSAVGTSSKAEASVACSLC

As to `CCCCC[C@@H](O)/C=C/[C@H]1[C@H](O)CC(=O)[C@@H]1C/C=C\CCCC(=O)O`, the Ki is > 10 µM.
As to `CCCCC[C@@H](O)/C=C/[C@H]1[C@H](O)CC(=O)[C@@H]1CCCCCCC(=O)O`, the Ki was determined as 0.137 µM.
As for `CCCCC[C@H](O)/C=C/[C@@H]1[C@H]2C/C(=C\CCCC(=O)O)C[C@H]2C[C@H]1O`, the figure is 0.0166 µM; as for `CCCCC[C@H](O)/C=C/[C@@H]1[C@@H](CC(=O)CCC(=O)O)[C@@H](O)C[C@H]1O` [2,3-dinor-6-ketoprostaglandin F1alpha], > 10 µM; as for `CCCCC[C@H](O)/C=C/C1[C@H](O)CC(=O)[C@H]1CCCCCCC(=O)O` (stereo partly drawn) [8-ISO PROSTAGLANDIN E1], 0.735 µM.
As for `CCCCCC(=O)CC[C@H]1[C@H](O)CC(=O)[C@@H]1C/C=C\CCCC(=O)O` [13,14-DIHYDRO-15-KETO PROSTAGLANDIN E2], the Ki was 8.41 µM and > 10 µM.
As for `O=C(O)CCC/C=C\C[C@H]1C(=O)C[C@@H](O)[C@@H]1/C=C/[C@@H](O)CCc1ccccc1` [17-PHENYL TRINOR PROSTAGLANDIN E2], the figure is 4.37 µM.
The molecule `CCCCC[C@H](O)/C=C/[C@H]1[C@H](O)CC(=O)[C@@H]1C/C=C/CCCC(=O)O` [(E)-7-((1R,2R,3R)-3-hydroxy-2-((S,E)-3-hydroxyoct-1-enyl)-5-oxocyclopentyl)hept-5-enoic acid] yielded a Ki of 0.735 µM.
For the molecule `CCCCC[C@H](O)/C=C/C1[C@H](O)C[C@H](O)[C@@H]1C/C=C\CCCC(=O)O` (stereo partly drawn) [(Z)-7-[(1R,3R,5S)-3,5-Dihydroxy-2-((E)-(S)-3-hydroxy-oct-1-enyl)-cyclopentyl]-hept-5-enoic acid], the Ki is > 10 µM.
As for `CCCCC[C@H](O)CC[C@H]1[C@H](O)CC(=O)[C@@H]1CCCCCCC(=O)O` [CAS_19313-28-1], the figure is 0.315 µM.
For the molecule `CCCCCC(O)C=CC1C(O)CC2OC(CCCCC(=O)O)CC21` (stereo not drawn) [CAS_162981], the Ki is 7.35 µM.
As to `CCCCC[C@H](O)/C=C/[C@H]1[C@H](O)CC(=O)[C@@H]1C/C=C\CCCC(=O)O` [DINOPROSTONE], the Ki was > 10 µM.
In the case of `CCCCCC(O)C=CC1C(O)CC(O)C1CCCCCCC(=O)O` (stereo not drawn) [NSC_5280939], the Ki was > 10 µM.
